Reference: ChEMBL document CHEMBL1201862, “PubChem BioAssay data set” (2004)
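Exposure lasted 48 hours, with cells grown in 96-well plates and compounds tested at five concentrations. At the GI50, growth is halved.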 Active and inactive are the calls of the source. Rule as the data show it: active = GI50 up to about 1.1 µM and inactive = higher.

What was measured:
Assay in all cases: NCI-60 cell line screen, 48 h
MCF7 = system: MCF7
HOP-62 = system: HOP-62
MDA-MB-231 = system: MDA-MB-231
SF-539 = system: SF-539
SNB-75 = system: SNB-75
SR = system: SR
IGROV-1 = system: IGROV-1
HOP-92 = system: HOP-92
CCRF-CEM = system: CCRF-CEM
SW-620 = system: SW-620
HL-60 = system: HL-60
Hs-578T = system: Hs-578T
SK-OV-3 = system: SK-OV-3
CAKI-1 = system: CAKI-1
UO-31 = system: UO-31
DU-145 = system: DU-145
Malme-3M = system: Malme-3M
U-251 = system: U-251
LOX IMVI = system: LOX IMVI
HT-29 = system: HT-29

SMILES	GI50 (MCF7)	GI50 (HOP-62)	GI50 (MDA-MB-231)	GI50 (SF-539)	GI50 (SNB-75)	GI50 (SR)	GI50 (IGROV-1)	GI50 (HOP-92)	GI50 (CCRF-CEM)	GI50 (SW-620)	GI50 (HL-60)	GI50 (Hs-578T)	GI50 (SK-OV-3)	GI50 (CAKI-1)	GI50 (UO-31)	GI50 (DU-145)	GI50 (Malme-3M)	GI50 (U-251)	GI50 (LOX IMVI)	GI50 (HT-29)
CC(C)c1nc(Cl)c(Cl)c(Cl)n1	1.75 µM (inactive)	12.6 µM (inactive)	8.85 µM (inactive)	9.2 µM (inactive)	11.2 µM (inactive)	0.431 µM (active)	3.08 µM (inactive)	3.24 µM (inactive)	1.07 µM (active)	1.7 µM (inactive)	1.71 µM (inactive)	2.76 µM (inactive)	17.7 µM (inactive)	2.09 µM (inactive)	1.19 µM (inactive)	7.69 µM (inactive)	0.608 µM (active)	3.42 µM (inactive)	0.246 µM (active)	2.1 µM (inactive)
O=c1c(Cl)nsnc1Cl	6.22 µM (inactive)	18.7 µM (inactive)	19.3 µM (inactive)	12.9 µM (inactive)	22.6 µM (inactive)	1.95 µM (inactive)	16.4 µM (inactive)	0.665 µM (active)	0.984 µM (active)	3.43 µM (inactive)	0.787 µM (active)	30.2 µM (inactive)	19.1 µM (inactive)	4.26 µM (inactive)	6.4 µM (inactive)	17.3 µM (inactive)	6.38 µM (inactive)	15.1 µM (inactive)	9.23 µM (inactive)	24.2 µM (inactive)
COC(=O)[C@H](Cc1ccccc1)NC(=O)c1ccc(CNC(=O)/C=C/c2ccc(OCc3ccccc3)cc2)cc1	29.4 µM (inactive)	12.6 µM (inactive)	16.5 µM (inactive)	16.4 µM (inactive)	13.8 µM (inactive)	12.1 µM (inactive)	2.7 µM (inactive)	2.45 µM (inactive)	17.4 µM (inactive)	> 47.4 µM (inactive)	< 0.01 µM (active)	5.66 µM (inactive)	24.4 µM (inactive)	12.1 µM (inactive)	14 µM (inactive)	12.4 µM (inactive)	3.5 µM (inactive)	18.1 µM (inactive)	17.1 µM (inactive)	13.5 µM (inactive)
CC(=O)OCC1OC(n2c(C)c(/N=N/c3ccccc3)c(C)c(C#N)c2=S)C(OC(C)=O)C(OC(C)=O)C1OC(C)=O (stereo not given)	> 100 µM (inactive)	14.4 µM (inactive)	20.6 µM (inactive)	58.7 µM (inactive)	1.85 µM (inactive)	> 100 µM (inactive)	99.1 µM (inactive)	8.99 µM (inactive)	> 100 µM (inactive)	> 100 µM (inactive)	> 100 µM (inactive)	5.32 µM (inactive)	22.6 µM (inactive)	26.6 µM (inactive)	> 100 µM (inactive)	83.4 µM (inactive)	46.3 µM (inactive)	> 10 µM (inactive)	39.6 µM (inactive)	> 100 µM (inactive)
COc1ccc(C(=O)/C=C/c2cc(O)c(O)cc2F)c(OC)c1	0.395 µM (active)	6.58 µM (inactive)	13.6 µM (inactive)	6.04 µM (inactive)	4.67 µM (inactive)	0.564 µM (active)	7.96 µM (inactive)	50.1 µM (inactive)	0.783 µM (active)	6.82 µM (inactive)	1.15 µM (inactive)	4.8 µM (inactive)	10.6 µM (inactive)	9.04 µM (inactive)	7.67 µM (inactive)	6.19 µM (inactive)	7.71 µM (inactive)	5.45 µM (inactive)	10.6 µM (inactive)	7.48 µM (inactive)
